Laboratory results published in patent US7858637B2, “Administration of TLR7 ligands and prodrugs thereof for treatment of infection by hepatitis C virus” (priority 2003, dated 2010).
Where two headings read alike, the source gives them in different places.

What was measured:
[1] = Toxicology studies, GI tolerance in beagle dogs; assay type: in vivo, beagle dog; conditions: dog, in vivo, iv
Description: We compared in the dog the oral toxicology of 21 and 24, and the intravenous toxicology of 21. We observed that the oral toxicology of 24 was much more like intravenous 21 than it was like oral 21.

[2] = cited from earlier work

Nc1nc2c(sc(=O)n2[C@@H]2O[C@H](CO)[C@@H](O)[C@H]2O)c(=O)[nH]1 [Compound 21, 7-thia-8-oxoguanosine]
Emesis or loose stool ([1]; 12.5 mg/kg): Neg.
GI lesions or irritation ([1]; 12.5 mg/kg): Neg.
Emesis or loose stool ([1]; 25 mg/kg): Neg.
GI lesions or irritation ([1]; 25 mg/kg): Neg.
Emesis or loose stool ([1]; 50 mg/kg): +
GI lesions or irritation ([1]; 50 mg/kg): Neg.
Emesis or loose stool ([1]; 100 mg/kg): ++
GI lesions or irritation ([1]; 100 mg/kg): Neg.
Emesis or loose stool ([2]; dog, in vivo, po, 2.5 mg/kg): Neg.
GI lesions or irritation ([2]; dog, in vivo, po, 2.5 mg/kg): Neg.
Emesis or loose stool ([2]; dog, in vivo, po, 5 mg/kg): +
GI lesions or irritation ([2]; dog, in vivo, po, 5 mg/kg): Neg.
Emesis or loose stool ([2]; dog, in vivo, po, 10 mg/kg): ++
GI lesions or irritation ([2]; dog, in vivo, po, 10 mg/kg): ++
multiple, scattered red lesions on the intestinal mucosa (gross histopathologic evaluation of the GI tract) ([2]; dog, in vivo, po, 10 mg/kg): four of eight dogs
NOAEL ([2]; dogs, orally administered, established by the GI effects): 5 mg/kg
